The target in this experiment is human topoisomerase IIα (Homo sapiens, UniProt P11388). Put plainly: competition against DNA cleavage induced by […] 8-methyl-3′-. It counts as biochemical.
Chain of human topoisomerase IIα (P11388 whole entry): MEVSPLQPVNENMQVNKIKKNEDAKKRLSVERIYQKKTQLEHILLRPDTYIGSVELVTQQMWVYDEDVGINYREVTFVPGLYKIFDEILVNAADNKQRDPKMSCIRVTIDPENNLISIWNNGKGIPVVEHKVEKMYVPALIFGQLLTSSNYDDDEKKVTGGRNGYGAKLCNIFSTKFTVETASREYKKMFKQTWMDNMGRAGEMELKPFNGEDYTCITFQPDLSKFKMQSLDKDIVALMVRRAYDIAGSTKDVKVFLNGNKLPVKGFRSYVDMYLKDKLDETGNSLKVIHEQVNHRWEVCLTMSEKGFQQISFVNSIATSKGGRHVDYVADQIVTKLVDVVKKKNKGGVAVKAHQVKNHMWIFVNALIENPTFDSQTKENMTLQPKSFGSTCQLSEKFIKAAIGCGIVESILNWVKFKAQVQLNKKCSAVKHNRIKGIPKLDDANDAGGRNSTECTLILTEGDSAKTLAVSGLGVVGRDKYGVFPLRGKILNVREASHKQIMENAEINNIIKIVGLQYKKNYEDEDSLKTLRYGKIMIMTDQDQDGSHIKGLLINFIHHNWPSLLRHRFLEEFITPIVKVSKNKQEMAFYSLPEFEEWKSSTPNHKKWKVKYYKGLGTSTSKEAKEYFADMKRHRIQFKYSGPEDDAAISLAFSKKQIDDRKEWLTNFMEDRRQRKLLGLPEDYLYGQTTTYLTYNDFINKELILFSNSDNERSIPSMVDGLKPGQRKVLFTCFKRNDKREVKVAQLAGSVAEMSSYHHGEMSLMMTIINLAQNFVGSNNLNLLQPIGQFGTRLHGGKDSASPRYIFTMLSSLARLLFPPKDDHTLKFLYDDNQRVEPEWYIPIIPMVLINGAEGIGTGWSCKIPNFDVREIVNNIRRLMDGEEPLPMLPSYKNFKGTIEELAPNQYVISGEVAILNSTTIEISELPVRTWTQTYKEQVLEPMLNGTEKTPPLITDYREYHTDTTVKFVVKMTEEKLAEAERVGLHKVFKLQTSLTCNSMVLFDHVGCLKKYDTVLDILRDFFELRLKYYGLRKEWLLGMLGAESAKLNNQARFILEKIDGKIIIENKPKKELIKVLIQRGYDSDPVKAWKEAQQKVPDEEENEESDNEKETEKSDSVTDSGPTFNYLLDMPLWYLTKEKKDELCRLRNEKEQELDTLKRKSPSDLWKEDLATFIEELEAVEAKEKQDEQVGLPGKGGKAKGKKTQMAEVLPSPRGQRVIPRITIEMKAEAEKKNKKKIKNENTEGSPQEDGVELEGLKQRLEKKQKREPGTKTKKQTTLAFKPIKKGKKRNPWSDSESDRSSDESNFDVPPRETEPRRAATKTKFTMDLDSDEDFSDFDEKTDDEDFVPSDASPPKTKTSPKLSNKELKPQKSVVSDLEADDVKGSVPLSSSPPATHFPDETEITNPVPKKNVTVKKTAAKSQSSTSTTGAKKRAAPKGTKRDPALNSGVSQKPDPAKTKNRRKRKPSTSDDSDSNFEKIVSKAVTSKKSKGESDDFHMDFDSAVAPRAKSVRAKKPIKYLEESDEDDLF

In general, IC50 refers to the concentration that inhibits the measured activity by half. Take `NCC1CCN(c2cc3c(cc2F)c(=O)c(C(=O)O)cn3C2CC2)C1` (stereo not shown) [8-H-3′-(AM)P-FQ]: the IC50 was about 50 µM.
